# Measurements: patent publication US10492518B2, “Blood lipid-lowering composition, method for preparing the same and use thereof” (INFINITUS (CHINA) COMPANY LTD., priority 2018, dated 2019)
# System: mixed hyperlipidemia model in SD rat
# Assay: Test of the blood lipid-lowering efficacy: serum TC, TG, HDL-C, LDL-C and apo-A1 after 30 days oral administration
# Format: in vivo
# Settings: positive control, atorvastatin calcium 0.83 mg/Kg oral, high fat diet SD rats
# Protocol: Experiment object: compositions of examples 1 to 4, single component group (500 mg of echium seed oil), and two positive control groups: fish oil group (180 mg of EPA and 120 mg of DHA in each 1000 mg oil fish, purchased from Amway), and atorvastatin calcium group (each tablet was 20 mg containing 10 mg of active ingredient atorvastatin calcium, purchased from Pfizer Pharmaceutical Co., Ltd.).
# Reference was made to the test method of adjunctive blood lipid-lowering function in the Technical specification for health care food inspection and evaluation. The SPF grade male SD rats were chosen as the experimental animals. After the adaptation period, an animal model of mixed hyperlipidemia was established, and the rats were randomly divided into groups according to the TC level.
# There were three dosage groups, two positive control groups, one blank control group and one model control group. In low-dosage group, the dosage of the test sample was equal to 5 times ([…]) of the recommended amount for human; for the other two dosage groups, the dosages were respectively equal to 10 times (333.33 mg/kg) and 25 times (833.33 mg/kg) of the recommended amount for human. The dosage of the positive control group was equal to 5 times of the recommended amount for human (fish oil: 150 mg/Kg; atorvastatin calcium 0.83 mg/Kg). The blank control group and the model control group were administered with distilled water of the same volume by intragastric gavage. Each of the groups was weighed regularly. 30 days after the administration, blood samples were collected from the rats without fasting, and the serums were separated. TC (total cholesterol), TG (total triglyceride), (high-density lipoprotein cholesterol) and apo-A1 (apolipoprotein A1) were tested. The methods were illustrated in details hereinafter.
# Adaptation period: in a barrier system the rats were fed for regular feed and observed for 5 to 7 days.
# The rats were randomly divided into 22 groups according to the weight, 6 rats per group. One group of rats was fed with regular feed as the blank control group. The other 21 groups were fed with high fat diet as the model control group. All rats were weighed once a week.
# 20 days after the model control groups were fed with high fat diet, blood samples (1 to 1.5 mL of blood from the tail vein) were collected from the rats of the blank control group and the model control group without fasting. After the blood collection, the serum were quickly separated and transferred to a new centrifuge tube, and then cryopreserved at −20° C. for test. ELISA test kits for cholesterol, triglyceride, HDL-cholesterol and LDL-cholesterol were used to test the levels of TC, TG, LDL-C and HDL-C in the rat serum. […]
smiles,measurement,value
"CC(C)c1c(C(=O)Nc2ccccc2)c(-c2ccccc2)c(-c2ccc(F)cc2)n1CC[C@@H](O)C[C@@H](O)CC(=O)[O-].CC(C)c1c(C(=O)Nc2ccccc2)c(-c2ccccc2)c(-c2ccc(F)cc2)n1CC[C@@H](O)C[C@@H](O)CC(=O)[O-].[Ca+2] [Atorvastatin Calcium, atorvastatin calcium]","Serum HDL-C, Mean Value ± Standard Deviation",919.74 ± 150.63 µmol/L
same,"Serum LDL-C, Mean Value ± Standard Deviation",853.24 ± 236.19 µmol/L
same,"Serum total cholesterol (TC), Mean Value ± Standard Deviation",1117.14 ± 171.07 µmol/L
same,"Serum triglyceride (TG), Mean Value ± Standard Deviation",189.71 ± 45.83 µmol/L
